Measured values published in PubChem BioAssay (NCI).
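Five compound concentrations were applied to cells in 96-well plates for 48 hours; endpoints were derived by simple linear interpolation of the resulting dose-response curve. TGI: total growth inhibition.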

How the values were obtained:
Assay in all cases: growth of human tumour cells (NCI), 48 h
786-0 renal = test system: 786-0 renal
A549 NSCLC = test system: A549 NSCLC
ACHN renal = test system: ACHN renal
BT-549 breast = test system: BT-549 breast
CAKI-1 renal = test system: CAKI-1 renal
CCRF-CEM leukemia = test system: CCRF-CEM leukemia
COLO 205 colon = test system: COLO 205 colon
DU-145 prostate = test system: DU-145 prostate
EKVX NSCLC = test system: EKVX NSCLC
HCC-2998 colon = test system: HCC-2998 colon
HCT-116 colon = test system: HCT-116 colon
HCT-15 colon = test system: HCT-15 colon
HOP-62 NSCLC = test system: HOP-62 NSCLC
HS 578T breast = test system: HS 578T breast
HT29 colon = test system: HT29 colon
IGROV1 ovarian = test system: IGROV1 ovarian
K-562 leukemia = test system: K-562 leukemia
KM12 colon = test system: KM12 colon
LOX IMVI melanoma = test system: LOX IMVI melanoma
M14 melanoma = test system: M14 melanoma
MALME-3M melanoma = test system: MALME-3M melanoma
MCF7 breast = test system: MCF7 breast
MDA-MB-231 breast = test system: MDA-MB-231 breast
MDA-MB-435 = test system: MDA-MB-435
MOLT-4 leukemia = test system: MOLT-4 leukemia
NCI-H226 lung = test system: NCI-H226 lung
NCI-H23 lung = test system: NCI-H23 lung
NCI-H460 lung = test system: NCI-H460 lung
NCI-H522 lung = test system: NCI-H522 lung
NCI/ADR-RES ovarian = test system: NCI/ADR-RES ovarian
OVCAR-3 ovarian = test system: OVCAR-3 ovarian
OVCAR-4 ovarian = test system: OVCAR-4 ovarian
OVCAR-5 ovarian = test system: OVCAR-5 ovarian
OVCAR-8 ovarian = test system: OVCAR-8 ovarian
PC-3 prostate = test system: PC-3 prostate
RPMI-8226 leukemia = test system: RPMI-8226 leukemia
RXF 393 renal = test system: RXF 393 renal
SF-268 CNS = test system: SF-268 CNS
SF-295 CNS = test system: SF-295 CNS
SF-539 CNS = test system: SF-539 CNS
SK-MEL-2 melanoma = test system: SK-MEL-2 melanoma
SK-MEL-28 melanoma = test system: SK-MEL-28 melanoma
SK-MEL-5 melanoma = test system: SK-MEL-5 melanoma
SK-OV-3 ovarian = test system: SK-OV-3 ovarian
SN12C renal = test system: SN12C renal
SNB-19 CNS = test system: SNB-19 CNS
SNB-75 CNS = test system: SNB-75 CNS
SR leukemia = test system: SR leukemia
SW-620 colon = test system: SW-620 colon
T-47D breast = test system: T-47D breast
TK-10 renal = test system: TK-10 renal
U251 CNS = test system: U251 CNS
UACC-257 melanoma = test system: UACC-257 melanoma
UACC-62 melanoma = test system: UACC-62 melanoma
UO-31 renal = test system: UO-31 renal

Measured: TGI

COc1ccc(S(=O)Cc2cc(OC)c(OC)c(OC)c2)cc1 (stereo not given)
35.7 µM: MDA-MB-435
> 100 µM: all other assays above
